Paper PMC9093066 (Bioorganic & Medicinal Chemistry, 2022)

Legend:
SARS-CoV-2 Mac1 [1] = target: T1, SARS-CoV-2 Mac1 (Severe acute respiratory syndrome coronavirus 2, UniProt P0DTD1); format: binding; settings: for SARS CoV2 Mac1 Alpha (IC50): AlphaScreen ADP-ribose binding, IC50 ± SD of three replicates
SARS-CoV-2 Mac1 [2] = target: T1, SARS-CoV-2 Mac1; format: binding; settings: DSF, 300 µM compound, ± SD of three replicates
Mac1 = settings: cited from earlier work
[3] = target: T2, NudF ADP-ribose pyrophosphatase (Escherichia coli, UniProt Q93K97); test: NudF-mediated counterscreen of ADPr-Glo assay; format: biochemical; settings: NudF only with free ADP-ribose
T2 sequence (Q93K97 1-209): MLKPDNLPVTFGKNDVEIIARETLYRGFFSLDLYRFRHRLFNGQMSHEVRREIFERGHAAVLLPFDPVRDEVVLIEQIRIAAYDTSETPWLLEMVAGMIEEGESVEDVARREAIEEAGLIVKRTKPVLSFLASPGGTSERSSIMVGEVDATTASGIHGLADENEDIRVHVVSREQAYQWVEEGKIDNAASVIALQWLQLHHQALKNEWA

[4] = system: panel of MAR binding proteins from viruses and humans
SARS-CoV-2 Mac1 [5] = target: T1, SARS-CoV-2 Mac1; format: biochemical; settings: ADPr-Glo dose response, n = 2

## c1ccc2c(CCNc3ncnc4[nH]ccc34)c[nH]c2c1 [Compound 20, N-(2-(1H-indol-3-yl)ethyl)-7H-pyrrolo[2,3–d]pyrimidin-4-amine]
SARS-CoV-2 Mac1 [1]
  fold less potent than 15c: approximately 7 fold

## Methyl (R)-4-(7H-pyrrolo[2,3–d]pyrimidin-4-yl)piperazine-2-carboxylate ●TFA [Compound 10b]
SARS-CoV-2 Mac1 [1]
  SARS CoV2 Mac1 Alpha (IC50): Inactive

## O=C(O)[C@@H]1CCC[C@@H]1Nc1ncnc2[nH]ccc12 [Compound 19, (1R, 2S)-2-((7H-pyrrolo[2,3–d]pyrimidin-4-yl)amino)cyclopentane-1-carboxylic acid]
SARS-CoV-2 Mac1 [2]
  Δ Tm (°C) @300 µM: > 1 °C

## O=C(O)CNc1ncnc2[nH]ccc12 [Compound 15d, (7H-pyrrolo[2,3–d]pyrimidin-4-yl)glycine]
SARS-CoV-2 Mac1 [1]
  SARS CoV2 Mac1 Alpha (IC50): did not demonstrate any inhibitory effect

## COC(=O)[C@@H]1CN(c2ncnc3[nH]ccc23)CCN1.O=C(O)C(F)(F)F [Compound 10a, Methyl (S)-4-(7H-pyrrolo[2,3–d]pyrimidin-4-yl)piperazine-2-carboxylate ●TFA]
SARS-CoV-2 Mac1 [1]
  SARS CoV2 Mac1 Alpha (IC50): Inactive

## Cc1ccc(C(=O)Nc2ccc(S(=O)(=O)O)c3cc(S(=O)(=O)O)cc(S(=O)(=O)O)c23)cc1NC(=O)c1cccc(NC(=O)Nc2cccc(C(=O)Nc3cc(C(=O)Nc4ccc(S(=O)(=O)O)c5cc(S(=O)(=O)O)cc(S(=O)(=O)O)c45)ccc3C)c2)c1 [Suramin]
Mac1
  stabilization of the protein in DSF assay: concentration dependent stabilization of the protein

## O=C(O)C1CCCN(c2ncnc3[nH]ccc23)C1 (centres unmarked) [Compound 6g, 1-(7H-pyrrolo[2,3–d]pyrimidin-4-yl)piperidine-3-carboxylic acid]
[3]
  activity in NudF-mediated counterscreen: Neither compound demonstrated any activity

## CC(C)C[C@H](Nc1ncnc2[nH]ccc12)C(=O)O [Compound 15b, (7H-pyrrolo[2,3–d]pyrimidine-4-yl)-L-leucinate]
SARS-CoV-2 Mac1 [1]
  SARS CoV2 Mac1 Alpha (IC50): completely inactive

## CCOC(=O)[C@H](CC(C)C)Nc1ncnc2[nH]ccc12 [Compound 14b, Ethyl (7H-pyrrolo[2,3–d]pyrimidine-4-yl)-L-leucinate]
SARS-CoV-2 Mac1 [1]
  SARS CoV2 Mac1 Alpha (IC50): completely inactive

## O=C(O)[C@H](Cc1c[nH]c2ccccc12)Nc1ncnc2[nH]ccc12 [Compound 15c, (7H-pyrrolo[2,3–d]pyrimidin-4-yl)-L-tryptophan]
[4]
  selectivity in panel of ADP-ribose binding proteins: remarkably selective for coronavirus macrodomains
[3]
  activity in NudF-mediated counterscreen: Neither compound demonstrated any activity
SARS-CoV-2 Mac1 [5]
  inhibition of Mac1 enzyme (ADP-ribosylhydrolase) activity: dose-dependent inhibition

## O=C(O)C1CCN(c2ncnc3[nH]ccc23)CC1 [Compound 6h, 1-(7H-pyrrolo[2,3–d]pyrimidin-4-yl)piperidine-4-carboxylic acid]
SARS-CoV-2 Mac1 [1]; vs fragment 1
  fold improvement of potency over the initial fragment: ~10 fold
SARS-CoV-2 Mac1 [2]
  Δ Tm (°C) @300 µM: > 1 °C
